Test results reported in patent publication US10092546B2, “Imidazole derivatives” (Hoffman-La Roche Inc., priority 2015, dated 2018).

Assays:
[1] = target: T1, human EAAT3 (Homo sapiens, UniProt P43005); test: FLIPR Membrane Potential (FMP) assay, antagonist potency at human EAAT3; format: cell-based; settings: HEK-293 cells stably expressing human EAAT3; L-glutamate as agonist at EC80; antagonist applied 15 min before; Kb by Cheng-Prusoff from IC50
T1 construct: expressed in transfected cells
T1 sequence (P43005 1-524): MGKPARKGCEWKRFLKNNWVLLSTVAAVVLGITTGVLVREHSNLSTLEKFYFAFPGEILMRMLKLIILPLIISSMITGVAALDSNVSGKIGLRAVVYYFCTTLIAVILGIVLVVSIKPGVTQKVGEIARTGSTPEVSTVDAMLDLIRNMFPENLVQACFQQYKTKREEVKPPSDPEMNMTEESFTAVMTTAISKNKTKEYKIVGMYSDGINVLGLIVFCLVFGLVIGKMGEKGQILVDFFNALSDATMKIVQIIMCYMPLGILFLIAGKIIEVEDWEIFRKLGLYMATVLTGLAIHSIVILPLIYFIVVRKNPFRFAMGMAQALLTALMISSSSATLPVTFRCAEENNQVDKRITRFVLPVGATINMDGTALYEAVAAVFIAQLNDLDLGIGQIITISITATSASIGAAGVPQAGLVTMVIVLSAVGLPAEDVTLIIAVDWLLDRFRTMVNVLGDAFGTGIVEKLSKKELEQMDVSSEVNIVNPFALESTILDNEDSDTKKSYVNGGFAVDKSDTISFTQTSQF
Experimental: The FLIPR Membrane Potential (FMP) Assay
HEK-293 cells stably expressing human EAAT3 were seeded at 55 000 cells/well in growth medium (DMEM glutamate free (Invitrogen 11960-044), 1% Pen Strep (10 ml/l GIBCO BRL No 15140-023), 10% FCS non dialysed heat inactivated, 5 mg/l puromycin) in poly-D-lysine treated 96-well black microtiter plates with clear-bottom. After 24 h, the growth medium was removed and 100 μl/well of Krebs buffer (140 mM NaCl, 4.7 mM KCl, 2.5 mM CaCl2, 1.2 mM MgCl2, 11 mM HEPES, 10 mM D-glucose, pH=7.4) added. The cells were then loaded by adding 100 μl/well FMP assay dye (FLIPR Membrane Potential assay reagent, Molecular Devices). The 96-well plates were then incubated at 37° C. for 1 h. The depolarization of the cells will cause more dye to enter in the cells, where it will bind to intracellular proteins and lipids and cause an increase in the fluorescence signal. Antagonist potency at human EAAT3 was determined by using L-glutamate as agonist at a concentration which gives 80% of the maximum response. The antagonists were applied 15 min before the application of the agonist L-glutamate. The assays were performed at room temperature and measurements done by using a Fluorometric Imaging Plate Reader (FLIPR, Molecular Devices) and filter #2. Responses were measured as peak increase in fluorescence minus basal (i.e. fluorescence without addition of L-glutamate). Kb was determined using the Cheng-Prusoff equation Kb=IC50/[1+(A/EC50)], where IC50 is the concentration of the antagonist producing 50% inhibition, A is the concentration of the agonist against which the IC50 is being determined (at EC80) and EC50 is the concentration of the agonist producing 50% […].

| SMILES | Kb [1] [nM] | melting point [°C] |
| --- | --- | --- |
| CC(C)c1nccn1-c1cc(C(=O)NC(C)(C)C)cc(-c2ccc(F)cc2)n1 [Example 2, N-tert-Butyl-2-(4-fluorophenyl)-6-(2-propan-2-yl-imidazol-1-yl)-pyridine-4-carboxamide] | 110 | 199 |
| CC(C)(C)NC(=O)c1cc(-c2ccc(F)cc2)nc(-n2ccnc2CO)c1 [Example 14, N-tert-Butyl-2-(4-fluorophenyl)-6-[2-(hydroxymethyl)-imidazol-1-yl]-pyridine-4-carboxamide] | 370 | 212 |
| CC(C)(C)c1nccn1-c1cc(C(=O)NC(C)(C)C(F)(F)F)cc(-c2ccc(Cl)cc2)n1 [Example 25, 2-(2-tert-Butylimidazol-1-yl)-6-(4-chlorophenyl)-N-(1,1,1-trifluoro-2-methylpropan-2-yl)-pyridine-4-carboxamide] | 260 | 225 |
| CC(C)(C)NC(=O)c1cc(-c2ccc(F)c(F)c2)nc(-n2ccnc2C(C)(C)C)c1 [Example 26, N-tert-Butyl-2-(2-tert-butyl-imidazol-1-yl)-6-(3,4-difluorophenyl)-pyridine-4-carboxamide] | 370 | 244 |
| Cc1ccc(-c2cc(C(=O)NC(C)(C)C)cc(-n3ccnc3C(C)(C)C)n2)cc1 [Example 27, N-tert-Butyl-2-(2-tert-butyl-imidazol-1-yl)-6-(4-methylphenyl)-pyridine-4-carboxamide] | 110 | 232 |
| CC(C)(C)NC(=O)c1cc(-c2ccc(C3CC3)cc2)nc(-n2ccnc2C(C)(C)C)c1 [Example 28, N-tert-Butyl-2-(2-tert-butyl-imidazol-1-yl)-6-(4-cyclopropyl-phenyl)-pyridine-4-carboxamide] | 670 | 226 |
| COc1ccc(-c2cc(C(=O)NC(C)(C)C)cc(-n3ccnc3C(C)(C)C)n2)cc1 [Example 31, N-tert-Butyl-2-(2-tert-butyl-imidazol-1-yl)-6-(4-methoxy-phenyl)-pyridine-4-carboxamide] | 240 | 235 |
| CC(C)(C)NC(=O)c1cc(-c2ccc(C#N)cc2)nc(-n2ccnc2C(C)(C)C)c1 [Example 32, N-tert-Butyl-2-(2-tert-butyl-imidazol-1-yl)-6-(4-cyano-phenyl)-pyridine-4-carboxamide] | 290 | 245 |
| CCC(C)(C)NC(=O)c1cc(-c2ccc(F)cc2)nc(-n2ccnc2C(C)C)c1 [Example 39, 2-(4-Fluorophenyl)-N-(2-methylbutan-2-yl)-6-(2-propan-2-ylimidazol-1-yl)-pyridine-4-carboxamide] | 69 |  |
| CC(C)c1nccn1-c1cc(C(=O)NC(C)(C)C#N)cc(-c2ccc(Cl)cc2)n1 [Example 40, 2-(4-Chlorophenyl)-N-(2-cyanopropan-2-yl)-6-(2-propan-2-yl-imidazol-1-yl)-pyridine-4-carboxamide] | 360 |  |
